Data reported in patent US8765679B2, “Extract and peptides derived from Oryza sativa Japonica Group and uses thereof” (Yissum Research Development Company of The Hebrew …, priority 2010, dated 2014).
“Also recorded” adds a separate entry of the source.

Tests used:
EAE mice = assay: Experimental autoimmune encephalitis (EAE) induced with MOG peptide 35-55, neurological score; format: in vivo, Female C57BL/6 mice; conditions: for neurological score / neurological symptoms: oral 100 μg/kg, FIG. 2C, FIG. 3
Murine naïve CD4 cells = assay: Cytokine profile of RA1-treated CD4 cells (ELISA of supernatants); format: cell-based; conditions: anti-CD3/anti-CD28/IL2-activated CD4 cells, supernatants at 72 h
Procedure: Murine lymph nodes and/or spleens were mashed, harvested and single cell suspension was passed through a […] cell strainer and washed. Murine naïve CD4 cells were MACS separated using Miltenyi CD4 beads (Miltenyi Biotec GmbH, Bergisch Gladbach, ermany) according to manufacture instructions. Isolated T cells were seeded and activated with anti-CD3 […] and anti-CD28 […] (BD Biosciences, San Jose, Calif., USA) in the presence of IL2 (10 U/ml), (PeproTech Inc, Rocky Hill, N.J., USA). For cytokine production and RA1 determination supernatants were collected for ELISA. Cytokine analysis was performed in supernatants at 72 h using commercial kits: IFNγ, IL12 and IL4 (Perpotech), IL-17 (R&D systems) and IL10 (BD Biosciences).

[1] = tested on: mouse peritoneal macrophages; assay: Oxidative burst of PMA-activated peritoneal macrophages (luminescence); format: cell-based; conditions: for oxidative burst in activated macrophages (luminescence): added 1 minute after PMA, FIG. 6
Procedure: Mice were injected i.p. with thioglycolate. Peritoneal macrophages were obtained and incubated with horse-reddish peroxidase and luminol. The reaction started by the addition of phorbol myristate acetate (PMA) and 1 minute later RA1 was added. Luminescence measurement was started after PMA addition. Each cycle represents 74 seconds.
Mice were injected ip with 1.5 ml thioglycolate (29.8 g/l). Peritoneal macrophages were obtained and incubated (2.5×10^6 cells/ml) in HBSS with 2 μl of 1 mM CoCl2, 2 μl 100 mM Na2SeO3, 2 μl of 10 mM luminal. The reaction started by the addition of 5 μl of 100 μM phorbol myristate acetate (PMA) (final concentration of 2.5 μM) and one minute later RA1 was added. Luminescence measurement was started after PMA addition. Each cycle represents 74 seconds.

[2] = tested on: carrageenan-induced hind paw swelling; assay: Carrageenan-induced hind paw swelling; format: in vivo; conditions: 30 minutes prior to carrageenan, FIG. 5
Procedure: RA1 or saline were injected 30 minutes prior to carrageenan injection into the subplantar area. The diameter of the subplantar area was measured every 60 minutes by a micrometer. […] The effect of RA1 was tested in an animal model for inflammation. Inflammation induced by carrageenan, is acute, well-researched, and highly reproducible. Cardinal signs of inflammation edema, hyperalgesia, and erythema develop immediately following subcutaneous injection, resulting from action of proinflammatory agents bradykinin, histamine, tachykinins, complement and reactive oxygen, and nitrogen species. The inflammatory response is usually quantified by increase in paw size (edema). RA1 or its vehicle, i.e., saline, was injected ip 30 minutes prior to carrageenan treatment. Carrageenan (50 μl of 3 mg/ml) was injected into the subplantar area of both limbs of each animal. The diameter of the subplantar area was measured every 60 minutes by a micrometer. The degree of swelling was assessed by the difference between thicknesses measured after and prior to carrageenan injection (zero time).

experimental model of MS = conditions: intravenous and oral administrations; cited from earlier work
[3] = 3 times a week, starting 7 days after MOG immunization

Sequence: AEMIDLAAKMLSEG (ORYZA SATIVA JAPONICA) [RA4]
- neurological score / neurological symptoms (EAE mice; [3]): reduction of the neurological score

Sequence: AEMIDLAAKMLSEGR (ORYZA SATIVA JAPONICA) [RA3]
- neurological score / neurological symptoms (EAE mice; [3]): reduction of the neurological score

Sequence: AEMIDLAAKMLSEGRG (ORYZA SATIVA JAPONICA) [RA1, 16-mer peptide, amino acid residues 217-232 of Oryza sativa Japonica Group]
- IFNγ production (Murine naïve CD4 cells; FIG. 10A): reduction
- IL17 production (Murine naïve CD4 cells; FIG. 10B): reduction
- IL4 production (Murine naïve CD4 cells; FIG. 10C): elevation
- IL10 production (Murine naïve CD4 cells; FIG. 10D): elevation
- oxidative burst in activated macrophages (luminescence) ([1]; 0.1 ng/ml): less effective
- oxidative burst in activated macrophages (luminescence) ([1]; 1.0 ng/ml): less effective
- oxidative burst in activated macrophages (luminescence) ([1]; 10 ng/ml): strongly inhibited
- hydroxyl radical scavenger ([1]; summary statement referring to Example 6): highly effective
- neurological score (EAE mice; i.p. 0.1 μg/kg, three times a week, starting seven days after MOG immunization, FIG. 4): an increased effect
- neurological score (EAE mice; i.v., once on the day of MOG immunization, FIG. 2A): significantly improved
- neurological score / neurological symptoms (EAE mice; [3]): beneficial in reducing the neurological symptoms; also recorded: an increased effect
- swelling induced after the carrageenan injection ([2]; one dose 1.0 μg/kg ip): significantly reduced
- swelling induced after the carrageenan injection ([2]; one dose 10 μg/kg ip): significantly reduced

Sequence: EMIDLAAKMLSEGRG (ORYZA SATIVA JAPONICA) [RA2]
- neurological score (EAE mice; i.p. 1 μg/kg, 3 times a week, starting 7 days after MOG immunization, FIG. 2B, FIG. 4): reduction of the neurological score

Sequence: KGHYAERVG (listed as Homo sapiens) [IIIM1, 9-mer peptide derived from human histone H2A]
- neurological symptoms in the diseased mice (experimental model of MS): significantly ameliorated the neurological symptoms
